Experimental data taken from PubChem BioAssay (NCI).
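Each compound was tested at five concentrations against cells in 96-well plates for 48 hours. The concentration for full growth arrest is given as TGI.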

Legend:
Assay in all cases: DTP human tumour cell line panel, 48 h
COLO 205 colon = tested on: COLO 205 colon
HCT-15 colon = tested on: HCT-15 colon
K-562 leukemia = tested on: K-562 leukemia
LOX IMVI melanoma = tested on: LOX IMVI melanoma
MALME-3M melanoma = tested on: MALME-3M melanoma
MCF7 breast = tested on: MCF7 breast
MDA-MB-435 = tested on: MDA-MB-435
MDA-N = tested on: MDA-N
NCI-H460 lung = tested on: NCI-H460 lung
NCI-H522 lung = tested on: NCI-H522 lung
NCI/ADR-RES ovarian = tested on: NCI/ADR-RES ovarian
OVCAR-3 ovarian = tested on: OVCAR-3 ovarian
OVCAR-5 ovarian = tested on: OVCAR-5 ovarian
SF-268 CNS = tested on: SF-268 CNS
SK-MEL-28 melanoma = tested on: SK-MEL-28 melanoma
SK-OV-3 ovarian = tested on: SK-OV-3 ovarian
SNB-19 CNS = tested on: SNB-19 CNS
SR leukemia = tested on: SR leukemia

For `CN(NC(=O)c1ccc(Cl)cc1)C1=NCCCCN1`, the TGI (COLO 205 colon) was greater than 100 µM, the TGI (HCT-15 colon) was greater than 100 µM and the TGI (K-562 leukemia) was greater than 100 µM. It also gave a TGI (LOX IMVI melanoma) greater than 100 µM, a TGI (MALME-3M melanoma) greater than 100 µM and a TGI (MCF7 breast) greater than 100 µM. The TGI (MDA-MB-435) was greater than 100 µM, the TGI (MDA-N) was greater than 100 µM and the TGI (NCI-H460 lung) was greater than 100 µM. The TGI (NCI-H522 lung) was greater than 100 µM, the TGI (NCI/ADR-RES ovarian) was greater than 100 µM and the TGI (OVCAR-3 ovarian) was greater than 100 µM. The TGI (OVCAR-5 ovarian) was greater than 100 µM, the TGI (SF-268 CNS) was greater than 100 µM and the TGI (SK-MEL-28 melanoma) was greater than 100 µM. For the same compound, the TGI (SK-OV-3 ovarian) was greater than 100 µM, the TGI (SNB-19 CNS) was greater than 100 µM and the TGI (SR leukemia) was greater than 100 µM.
For `Cc1ccc(C)n1-n1c(Cc2ccc(Cl)cc2)n[nH]c1=O`, the TGI (COLO 205 colon) was greater than 100 µM, the TGI (HCT-15 colon) was greater than 100 µM and the TGI (K-562 leukemia) was greater than 100 µM. It also gave a TGI (LOX IMVI melanoma) greater than 100 µM, a TGI (MALME-3M melanoma) greater than 100 µM and a TGI (MCF7 breast) greater than 100 µM. The TGI (MDA-MB-435) was greater than 100 µM, the TGI (MDA-N) was greater than 100 µM and the TGI (NCI-H460 lung) was greater than 100 µM. The TGI (NCI-H522 lung) was greater than 100 µM, the TGI (NCI/ADR-RES ovarian) was greater than 100 µM and the TGI (OVCAR-3 ovarian) was greater than 100 µM. For the same compound, the TGI (OVCAR-5 ovarian) was greater than 100 µM, the TGI (SF-268 CNS) was greater than 100 µM and the TGI (SK-MEL-28 melanoma) was greater than 100 µM. It also gave a TGI (SK-OV-3 ovarian) greater than 100 µM, a TGI (SNB-19 CNS) greater than 100 µM and a TGI (SR leukemia) greater than 100 µM.
`O=C(OC1C#CCSCC#C/C=C\1)c1cnc2ccccc2n1` (centres undefined) was tested, and the TGI (COLO 205 colon) was 30.8 µM, the TGI (HCT-15 colon) was greater than 100 µM and the TGI (K-562 leukemia) was 65.4 µM. For the same compound, the TGI (LOX IMVI melanoma) was greater than 100 µM, the TGI (MALME-3M melanoma) was greater than 100 µM and the TGI (MCF7 breast) was greater than 100 µM. The TGI (MDA-MB-435) was greater than 100 µM, the TGI (MDA-N) was greater than 100 µM and the TGI (NCI-H460 lung) was 33.7 µM. It also gave a TGI (NCI-H522 lung) greater than 100 µM, a TGI (NCI/ADR-RES ovarian) greater than 100 µM and a TGI (OVCAR-3 ovarian) greater than 100 µM. It also gave a TGI (OVCAR-5 ovarian) greater than 100 µM, a TGI (SF-268 CNS) greater than 100 µM and a TGI (SK-MEL-28 melanoma) greater than 100 µM. For the same compound, the TGI (SK-OV-3 ovarian) was greater than 100 µM, the TGI (SNB-19 CNS) was greater than 100 µM and the TGI (SR leukemia) was 53.1 µM.
`CCN1CCC(O)(/C=C/c2cccc(C)c2)C(C(=O)/C=C/c2cccc(C)c2)C1` (centres undefined) was tested, and the TGI (COLO 205 colon) was 4.67 µM, the TGI (HCT-15 colon) was 6.29 µM and the TGI (K-562 leukemia) was greater than 29.8 µM. For the same compound, the TGI (LOX IMVI melanoma) was 5.02 µM, the TGI (MALME-3M melanoma) was 3.53 µM and the TGI (MCF7 breast) was 6.44 µM. For the same compound, the TGI (MDA-MB-435) was 4.61 µM, the TGI (MDA-N) was 8.67 µM and the TGI (NCI-H460 lung) was 4.64 µM. It also gave a TGI (NCI-H522 lung) of 4.65 µM, a TGI (NCI/ADR-RES ovarian) of 5.99 µM and a TGI (OVCAR-3 ovarian) of 12.4 µM. For the same compound, the TGI (OVCAR-5 ovarian) was 6.98 µM, the TGI (SF-268 CNS) was 3.44 µM and the TGI (SK-MEL-28 melanoma) was 4.49 µM. For the same compound, the TGI (SK-OV-3 ovarian) was 11.4 µM, the TGI (SNB-19 CNS) was 15.4 µM and the TGI (SR leukemia) was greater than 100 µM.
For `[N-]=[N+]=NCC(=O)c1c[nH]c(=O)[nH]c1=O`, the TGI (COLO 205 colon) was greater than 100 µM, the TGI (HCT-15 colon) was greater than 100 µM and the TGI (K-562 leukemia) was greater than 100 µM. The TGI (LOX IMVI melanoma) was greater than 100 µM, the TGI (MALME-3M melanoma) was greater than 100 µM and the TGI (MCF7 breast) was greater than 100 µM. The TGI (MDA-MB-435) was greater than 100 µM, the TGI (MDA-N) was greater than 100 µM and the TGI (NCI-H460 lung) was greater than 100 µM. For the same compound, the TGI (NCI-H522 lung) was greater than 100 µM, the TGI (NCI/ADR-RES ovarian) was greater than 100 µM and the TGI (OVCAR-3 ovarian) was greater than 100 µM. For the same compound, the TGI (OVCAR-5 ovarian) was greater than 100 µM, the TGI (SF-268 CNS) was greater than 100 µM and the TGI (SK-MEL-28 melanoma) was greater than 100 µM. It also gave a TGI (SK-OV-3 ovarian) greater than 100 µM, a TGI (SNB-19 CNS) greater than 100 µM and a TGI (SR leukemia) greater than 100 µM.
In the case of `C=CC(C)(C)c1c(OC)oc2ccc(OC)c(C)c2c1=O`, the TGI (COLO 205 colon) is reported as greater than 100 µM, the TGI (HCT-15 colon) is reported as greater than 100 µM and the TGI (K-562 leukemia) is reported as greater than 100 µM. It also gave a TGI (LOX IMVI melanoma) greater than 100 µM, a TGI (MALME-3M melanoma) greater than 100 µM and a TGI (MCF7 breast) greater than 100 µM. For the same compound, the TGI (MDA-MB-435) was greater than 100 µM, the TGI (MDA-N) was greater than 100 µM and the TGI (NCI-H460 lung) was greater than 100 µM. For the same compound, the TGI (NCI-H522 lung) was greater than 100 µM, the TGI (NCI/ADR-RES ovarian) was greater than 100 µM and the TGI (OVCAR-3 ovarian) was greater than 100 µM. For the same compound, the TGI (OVCAR-5 ovarian) was greater than 100 µM, the TGI (SF-268 CNS) was greater than 100 µM and the TGI (SK-MEL-28 melanoma) was greater than 100 µM. It also gave a TGI (SK-OV-3 ovarian) greater than 100 µM, a TGI (SNB-19 CNS) greater than 100 µM and a TGI (SR leukemia) greater than 100 µM.
With `C/C(=N/NC(=S)Nc1ccccc1C)c1ccccn1` the TGI (COLO 205 colon) was 2.56 µM, the TGI (HCT-15 colon) was 18.3 µM and the TGI (K-562 leukemia) was 3.4 µM. For the same compound, the TGI (LOX IMVI melanoma) was 15.7 µM, the TGI (MALME-3M melanoma) was 15.9 µM and the TGI (MCF7 breast) was 12.8 µM. The TGI (MDA-MB-435) was 15.5 µM, the TGI (MDA-N) was 20.1 µM and the TGI (NCI-H460 lung) was 7.61 µM. The TGI (NCI-H522 lung) was 12.9 µM, the TGI (NCI/ADR-RES ovarian) was 8.62 µM and the TGI (OVCAR-3 ovarian) was 9.47 µM. For the same compound, the TGI (OVCAR-5 ovarian) was 10.7 µM, the TGI (SF-268 CNS) was 30.9 µM and the TGI (SK-MEL-28 melanoma) was 23.1 µM. It also gave a TGI (SK-OV-3 ovarian) of 14.8 µM, a TGI (SNB-19 CNS) of 54.8 µM and a TGI (SR leukemia) greater than 4.64 µM.
Compound `CC1NC(=O)c2c(-c3ccccc3)nn(-c3ccccc3)c2NC1=O` (centres undefined) has a TGI (COLO 205 colon) greater than 100 µM, a TGI (HCT-15 colon) greater than 100 µM and a TGI (K-562 leukemia) greater than 100 µM. It also gave a TGI (LOX IMVI melanoma) greater than 100 µM, a TGI (MALME-3M melanoma) greater than 100 µM and a TGI (MCF7 breast) greater than 100 µM. The TGI (MDA-MB-435) was greater than 100 µM, the TGI (MDA-N) was greater than 100 µM and the TGI (NCI-H460 lung) was greater than 100 µM. For the same compound, the TGI (NCI-H522 lung) was greater than 100 µM, the TGI (NCI/ADR-RES ovarian) was greater than 100 µM and the TGI (OVCAR-3 ovarian) was greater than 100 µM. The TGI (OVCAR-5 ovarian) was greater than 100 µM, the TGI (SF-268 CNS) was greater than 100 µM and the TGI (SK-MEL-28 melanoma) was greater than 100 µM. It also gave a TGI (SK-OV-3 ovarian) greater than 100 µM, a TGI (SNB-19 CNS) greater than 100 µM and a TGI (SR leukemia) greater than 100 µM.
